{"source": "patent US20250276999A1", "about": "“PEPTIDES FOR PROMOTING HAIR FOLLICLE NEOGENESIS, AND PREVENTION/MITIGATION OF UNTOWARD EFFECTS OF RADIATION TREATMENT” (Trustees of Tufts College, priority 2022, published 2025)", "tested_on": "human hair follicle formation in grafted DECs", "assay": "Dermal-epidermal composites (DECs) grafted onto nude mice", "type": "in vivo, NIH(S)-nu/nu female mice", "method": "We next asked if TNS peptides could increase human hair follicle formation in grafted dermal-epidermal composite cultures. Human dermal papilla cells isolated from temporal scalp dermis and propagated in vitro. Normal foreskin keratinocytes (NFK) were isolated from neonatal foreskins (pooled from 5-7 donors) and were cultured in serum-free medium supplemented with EGF and bovine pituitary extract. Dermal epidermal composites (DECs) were prepared with human dermal papilla cells and NFK and were grafted onto nude mice. Imaging was done at 4 weeks, 6 weeks, 8 weeks, 10 weeks and 12 weeks and staining for hHLA was performed to evaluate hair follicle anatomy (FIG. 3). TSN peptides increased hair follicle generation (FIG. 3) as well as increased epidermal proliferation in vivo (FIG. 4).\nDermal-epidermal composites and grafting: Human dermal papilla cells isolated from temporal scalp dermis (Promocell, Heidelberg, Germany) from a donor (HDP47) were propagated in vitro according to manufacturer's recommendations. Normal foreskin keratinocytes (NFK) were isolated from neonatal foreskins (pooled from 5-7 donors) and were cultured in serum-free medium (Keratinocyte-SFM, Invitrogen), supplemented with EGF and bovine pituitary extract according to manufacturer's recommendation. Dermal epidermal composites (DECs) were prepared with human dermal papilla cells and NFK and were grafted onto nude mice. […]"}
{"sequence": "HSPDIQLQKGLTFEPIQIK [TSN6, 19 amino acid peptide derived from multimerin-1, Coiled coil domain]", "values": [{"measurement": "epidermal proliferation in vivo (Ki-67+ cells in epidermis of grafts)", "setting": "1 μM peptide vs scrambled, P=0.08 (FIG. 4)", "value": "stimulates epidermal proliferation"}, {"measurement": "human hair follicle formation in grafted DECs", "setting": "12 weeks after grafting, human HLA staining, vs TSN6-scrambled (FIG. 3)", "value": "increases human hair follicle formation"}]}
